Experiments:
HepG2 cells = conditions: cited from earlier work
[1] = stability in human liver microsomes; assay type: in vitro ADME; conditions: both sexes, human liver microsomes, pH 7.4, 1 μM, HLM 0.5 mg/mL, 37°C, 1 h, mean of duplicates, read-out: HLM stability t1/2
Experimental: Experiments were performed by Pharmaron, Inc., China. […] Negative control samples were prepared by replacing the NADPH solution with ultrapure H2O. The negative controls were used to exclude the confounding variable of test compound instability. Experiments involving NADPH were carried out in duplicate. Negative controls were prepared in singlet. Aliquots (90 µL) were taken at 0, 15, 30, 45, and 60 min of incubation. The microsomal reaction in each aliquot was stopped by the addition of four volumes of cold acetonitrile containing internal standards (100 nM alprazolam, 200 nM imipramine, 200 nM labetalol, and 2 µM ketoprofen). The samples were centrifuged at 3,220 × g for 40 min, and an aliquot (90 µL) of the supernatant was mixed with 90 µL of ultrapure H2O. The resulting mixture was used for liquid chromatography–tandem mass spectrometry (LC-MS/MS) analysis (Shimadzu and SCIEX Triple Quad 4500). Peak areas were determined from extracted ion chromatograms. A slope, k, was determined by linear regression analysis of a plot of the natural logarithm of the remaining percentage of the parent drug versus incubation time. The in vitro t1/2 (min) was determined from the slope: in vitro t1/2=−(0.693/k) In vitro t1/2 (min, mean of duplicate determinations) was converted to in vitro intrinsic clearance (in vitro Clint, μL/(min·µg protein)) by means of the following equation : in vitro Clint=(0.693/t1/2)×(volume of incubation (μL)/amount of protein (μg))

M. leprae = experiment: Shepard's mouse footpad model: bacilli count and molecular viability; assay type: in vivo, Mycobacterium leprae; conditions: Balb/c mice, 1 month, vehicle median 8.110 × 10^4
Experimental: Animal experimentation was conducted under approval by the ILSL ethical committee ([…] 02/19). Balb/c female mice with 8-week-old were inoculated with 5 × 10^3 live M. leprae bacilli, strain Thai-53, in both hind footpads, as previously described for the Shepard's model ([25]). Eight groups were tested in the experiment: (i) M. leprae control group (n = 5) inoculated with M. leprae and no additional treatment; (ii) vehicle control group (n = 4) inoculated with M. leprae and treatment with vehicle of the drugs; (iii) regular rifampicin treatment, 10 mg/Kg dose; […] (v) compound 2 treatment (n = 4), 50 mg/kg dose; […] One month after inoculation, mice from the control group were euthanized and the hind footpad was collected to assess the establishment of the infection by bacillary enumeration. At that time point, vehicle or drug treatment was started for the remaining groups. All compounds were administrated by gavage, rifampicin was administered weekly, and the compounds were administered daily (excluding weekends) for 1 month (20 doses). Mice were euthanized 6 h after administration of the last dose, and blood was collected in heparin-coated tubes by cardiac puncture for blood enzyme evaluation and compound 5 measurement by LC/MS in the plasma. The infected hind footpads from each group of mice were excised, homogenized and bacilli enumerated in a 100 μL aliquot as previously described ([26]). The remaining homogenate was centrifuged at 12,000 × g for 15 min, the supernatant was discarded, and the pellet was suspended in 750 μL of RNA later solution (Thermo Fisher Scientific). The homogenized tissue pellet was incubated at 4°C for 16 h and stored at -80°C until determination of M. leprae viability was performed by RT-qPCR ([27], [28]). […] RNA and DNA extractions were performed as previously described ([10], [27]). RNA samples were treated with the Turbo DNA-free kit (Thermo Fisher Scientific), and 1,000 ng of DNAse-treated RNA was then used to synthesize the cDNA using the GoScript kit (Promega, USA).

| Compound | IC50 (HepG2 cells) | half-life at 1 µM [1] | bacillary load in footpad, median (M. leprae; rifampicin 10 mg/kg weekly by gavage) | bacillary load in footpad, median (M. leprae; sub-inhibitory rifampicin 1 mg/kg weekly by gavage) |
| --- | --- | --- | --- | --- |
| C[C@]12CCC3C(CN(CCC(F)(F)F)C4CC(=O)CC[C@]34C)C1CCC2C(=O)Nc1cc(C(F)(F)F)ccc1C(F)(F)F (some centres unmarked) [Compound 4] | > 100 µM | 1.05 h | – | – |
| CCCN1CC2C3CCC(C(=O)NC(c4ccc(F)cc4)c4ccc(F)cc4)[C@@]3(C)CCC2[C@@]2(C)CCC(=O)C=C12 (some centres unmarked) [Compound 6] | > 100 µM | 5.62 h | – | – |
| C[C@]12CCC3C(CN(CCCF)C4CC(=O)CC[C@]34C)C1CCC2C(=O)Nc1cc(C(F)(F)F)ccc1C(F)(F)F (some centres unmarked) [Compound 3] | > 100 µM | 0.75 h | – | – |
| CO[C@H]1/C=C/O[C@@]2(C)Oc3c(C)c(O)c4c(O)c(c(/C=N/N5CCN(C)CC5)c(O)c4c3C2=O)NC(=O)/C(C)=C\C=C\[C@H](C)[C@H](O)[C@@H](C)[C@@H](O)[C@@H](C)[C@H](OC(C)=O)[C@@H]1C [rifampicin, reference compound] | – | – | 0.438 × 10^4 | 7.890 × 10^4 |

Reference: PMC12210912, “Pharmacologic properties and inhibitory activity of 6-azasteroids against Mycobacterium leprae in vivo and in vitro” (Microbiology Spectrum, 2025)
